Data reported in publication PMC6001238, “Iterative Chemical Engineering of Vancomycin Leads to Novel Vancomycin Analogs With a High in Vitro Therapeutic Index” (Frontiers in Microbiology, 2018).
In brackets after ≈: the same amount, converted by molar mass.

What was measured:
E. faecalis VRE 37 = assay: MIC, broth microdilution, vancomycin-resistant E. faecalis VRE 37 (VanA); type: cell-based, Enterococcus faecalis; conditions: for MIC: Enterococcus faecalis VRE 37 (vancomycin-resistant), read-out: MIC; for MIC-fold improvement vs. vancomycin: VRE 37, ratio of MIC of vancomycin and MIC of analogue
Procedure, shortened: (§1)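 MIC values come from broth microdilution run to CLSI susceptibility-testing standards. Ultrapure water and uninoculated broth served as controls. In one series, vancomycin at a final 10 μM was co-dosed with the analogue or comparator antibiotic.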

S. aureus VRSA = assay: MIC, broth microdilution, vancomycin-resistant S. aureus (VRSA); type: cell-based, Staphylococcus aureus; conditions: for MIC: Staphylococcus aureus VRSA, read-out: MIC; for MIC-fold improvement vs. vancomycin: VRSA, ratio of MIC of vancomycin and MIC of analogue
Procedure, shortened: as §1

[1] = system: human cervix carcinoma (HeLa) cells; assay: Cytostatic activity, HeLa cell proliferation; type: cell-based; conditions: mean ± SD of three experiments; highest concentration tested 250 µM; 4 days; read-out: Toxicity (IC50) HeLa
Procedure, shortened: (§2)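 Coulter counter cell counts after 37°C culture with compound; IC50 = concentration giving 50% growth inhibition vs negative control. Incubation: L1210 2 d, CEM 3 d, HeLa 4 d. Suspension density before mixing with an equal volume of dilution: 300,000–500,000 cells/mL.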

MRSA KS6 = assay: MIC, broth microdilution, MRSA KS6; type: cell-based, Staphylococcus aureus; conditions: for MIC-fold improvement vs. vancomycin: MRSA KS6, ratio of MIC of vancomycin and MIC of analogue; for MIC: Staphylococcus aureus MRSA KS6, read-out: MIC
Procedure, shortened: as §1

MRSA KS89 = assay: MIC, broth microdilution, MRSA KS89; type: cell-based, Staphylococcus aureus; conditions: for MIC-fold improvement vs. vancomycin: MRSA KS8, ratio of MIC of vancomycin and MIC of analogue; for MIC: Staphylococcus aureus MRSA KS8, read-out: MIC
Procedure, shortened: as §1

MRSA KS1 = assay: MIC, broth microdilution, MRSA KS1; type: cell-based, Staphylococcus aureus; conditions: for MIC-fold improvement vs. vancomycin: MRSA KS1, ratio of MIC of vancomycin and MIC of analogue; for MIC: Staphylococcus aureus MRSA KS1, read-out: MIC
Procedure, shortened: as §1

MRSA KS2 = assay: MIC, broth microdilution, MRSA KS2; type: cell-based, Staphylococcus aureus; conditions: for MIC-fold improvement vs. vancomycin: MRSA KS2, ratio of MIC of vancomycin and MIC of analogue; for MIC: Staphylococcus aureus MRSA KS2, read-out: MIC
Procedure, shortened: as §1

E. faecalis VRE 6 = assay: MIC, broth microdilution, vancomycin-resistant E. faecalis VRE 6 (VanA); type: cell-based, Enterococcus faecalis; conditions: for MIC: Enterococcus faecalis VRE 6 (vancomycin-resistant), read-out: MIC; for MIC-fold improvement vs. vancomycin: VRE 6, ratio of MIC of vancomycin and MIC of analogue
Procedure, shortened: as §1

E. faecalis VRE 29 = assay: MIC, broth microdilution, vancomycin-resistant E. faecalis VRE 29 (VanA); type: cell-based, Enterococcus faecalis; conditions: for MIC: Enterococcus faecalis VRE 29 (vancomycin-resistant), read-out: MIC; for MIC-fold improvement vs. vancomycin: VRE 29, ratio of MIC of vancomycin and MIC of analogue
Procedure, shortened: as §1

[2] = system: human T-lymphocyte (CEM) cells; assay: Cytostatic activity, CEM cell proliferation; type: cell-based; conditions: mean ± SD of three experiments; highest concentration tested 250 µM; 3 days; read-out: Toxicity (IC50) CEM
Procedure, shortened: as §2

[3] = system: S. aureus VSSA (ATCC 6538); assay: MIC, broth microdilution, vancomycin-sensitive S. aureus (VSSA/MSSA, ATCC 6538); type: cell-based, Staphylococcus aureus; conditions: for MIC: Staphylococcus aureus VSSA, read-out: MIC; for MIC-fold improvement vs. vancomycin: VSSA, ratio of MIC of vancomycin and MIC of analogue
Procedure, shortened: as §1

S. aureus VISA/HIP5827 = assay: MIC, broth microdilution, vancomycin-intermediate S. aureus VISA HIP5827; type: cell-based, Staphylococcus aureus; conditions: for MIC: Staphylococcus aureus VISA/HIP5827, read-out: MIC; for MIC-fold improvement vs. vancomycin: VISA/HIP5827, ratio of MIC of vancomycin and MIC of analogue
Procedure, shortened: as §1

[4] = system: Murine leukemia (L1210) cells; assay: Cytostatic activity, L1210 cell proliferation; type: cell-based; conditions: mean ± SD of three experiments; highest concentration tested 250 µM; 2 days; read-out: Toxicity (IC50) L1210
Procedure, shortened: as §2

E. faecalis VRE 53 = assay: MIC, broth microdilution, vancomycin-resistant E. faecalis VRE 53 (VanA); type: cell-based, Enterococcus faecalis; conditions: for MIC: Enterococcus faecalis VRE 53 (vancomycin-resistant), read-out: MIC; for MIC-fold improvement vs. vancomycin: VRE 53, ratio of MIC of vancomycin and MIC of analogue
Procedure, shortened: as §1

E. faecalis VSE 1 = assay: MIC, broth microdilution, vancomycin-sensitive E. faecalis (VSE 1); type: cell-based, Enterococcus faecalis; conditions: for MIC: Enterococcus faecalis VSE 1 (vancomycin-sensitive), read-out: MIC; for MIC-fold improvement vs. vancomycin: VSE 1, ratio of MIC of vancomycin and MIC of analogue
Procedure, shortened: as §1

[5] = system: L1210, CEM and HeLa cell lines; assay: Cytostatic activity, average or summary over L1210, CEM and HeLa; type: cell-based; conditions: average of L1210, CEM and HeLa; read-out: Toxicity (IC50) Average
Procedure, shortened: as §2

MIC (E. faecalis VRE 37) | MIC (S. aureus VRSA) | MIC-fold improvement vs. vancomycin (S. aureus VRSA) | MIC-fold improvement vs. vancomycin (MRSA KS6) | MIC (MRSA KS6) | MIC-fold improvement vs. vancomycin (MRSA KS89) | MIC (MRSA KS89) | MIC-fold improvement vs. vancomycin (MRSA KS1) | MIC (MRSA KS1) | MIC-fold improvement vs. vancomycin (MRSA KS2) | MIC (MRSA KS2) | MIC (E. faecalis VRE 6) | MIC-fold improvement vs. vancomycin (E. faecalis VRE 6) | MIC (E. faecalis VRE 29) | MIC-fold improvement vs. vancomycin (E. faecalis VRE 29) | MIC [3] | MIC-fold improvement vs. vancomycin [3] | MIC (S. aureus VISA/HIP5827) | SMILES | IC50 [1] | IC50 [2] | other results
12.5 µM (≈ 20.8 µg/mL) | 1.56 µM (≈ 2.6 µg/mL) | 64 | 0.25 | 3.13 µM (≈ 5.22 µg/mL) | 2 | 0.39 µM (≈ 0.65 µg/mL) | 2 | 0.39 µM (≈ 0.65 µg/mL) | 2 | 0.39 µM (≈ 0.65 µg/mL) | 3.13 µM (≈ 5.22 µg/mL) | 64 | 12.5 µM (≈ 20.8 µg/mL) | 32 | 0.39 µM (≈ 0.65 µg/mL) | 2 | 1.56 µM (≈ 2.6 µg/mL) | CNC(CC(C)C)C(=O)NC1C(=O)NC(CC(N)=O)C(=O)NC2C(=O)NC3C(=O)NC(C(=O)NC(C(=O)NCCCNC(=O)c4cc5cc(F)ccc5[nH]4)c4cc(O)cc(O)c4-c4cc3ccc4O)C(O)c3ccc(c(Cl)c3)Oc3cc2cc(c3OC2OC(CO)C(O)C(O)C2OC2CC(C)(N)C(O)C(C)O2)Oc2ccc(cc2Cl)C1O (centres unmarked) [Vanc-45] | > 250 µM | > 250 µM | MIC-fold improvement vs. vancomycin (S. aureus VISA/HIP5827): 4; IC50 [4]: > 250 µM; MIC (E. faecalis VRE 53): 25 µM (≈ 41.7 µg/mL); MIC-fold improvement vs. vancomycin (E. faecalis VRE 53): 16; MIC (E. faecalis VSE 1): 0.39 µM (≈ 0.65 µg/mL); MIC-fold improvement vs. vancomycin (E. faecalis VSE 1): 4; IC50 [5]: > 250 µM
25 µM (≈ 42.1 µg/mL) | 6.25 µM (≈ 10.5 µg/mL) | 16 | 0.25 | 3.13 µM (≈ 5.27 µg/mL) | 2 | 0.39 µM (≈ 0.657 µg/mL) | 1 | 0.78 µM (≈ 1.31 µg/mL) | 2 | 0.39 µM (≈ 0.657 µg/mL) | 6.25 µM (≈ 10.5 µg/mL) | 32 | 25 µM (≈ 42.1 µg/mL) | 16 | 0.78 µM (≈ 1.31 µg/mL) | 1 | 1.56 µM (≈ 2.63 µg/mL) | CNC(CC(C)C)C(=O)NC1C(=O)NC(CC(N)=O)C(=O)NC2C(=O)NC3C(=O)NC(C(=O)NC(C(=O)NCCNC(=O)C4c5ccccc5-c5ccccc54)c4cc(O)cc(O)c4-c4cc3ccc4O)C(O)c3ccc(c(Cl)c3)Oc3cc2cc(c3OC2OC(CO)C(O)C(O)C2OC2CC(C)(N)C(O)C(C)O2)Oc2ccc(cc2Cl)C1O (centres unmarked) [Vanc-46] | 108 ± 9 µM | 235 ± 21 µM | MIC-fold improvement vs. vancomycin (E. faecalis VRE 37): 16; MIC-fold improvement vs. vancomycin (S. aureus VISA/HIP5827): 4; IC50 [4]: 197 ± 18 µM; MIC (E. faecalis VRE 53): 25 µM (≈ 42.1 µg/mL); MIC-fold improvement vs. vancomycin (E. faecalis VRE 53): 16; MIC (E. faecalis VSE 1): 0.78 µM (≈ 1.31 µg/mL); MIC-fold improvement vs. vancomycin (E. faecalis VSE 1): 2; IC50 [5]: 180 µM
25 µM (≈ 42.5 µg/mL) | 3.13 µM (≈ 5.32 µg/mL) | 32 | 0.25 | 3.13 µM (≈ 5.32 µg/mL) | 2 | 0.39 µM (≈ 0.663 µg/mL) | 2 | 0.39 µM (≈ 0.663 µg/mL) | 2 | 0.39 µM (≈ 0.663 µg/mL) | 6.25 µM (≈ 10.6 µg/mL) | 32 | 25 µM (≈ 42.5 µg/mL) | 16 | 0.78 µM (≈ 1.33 µg/mL) | 1 | 1.56 µM (≈ 2.65 µg/mL) | CN[C@H](CC(C)C)C(=O)N[C@H]1C(=O)N[C@@H](CC(N)=O)C(=O)N[C@H]2C(=O)N[C@H]3C(=O)N[C@H](C(=O)N[C@H](C(=O)NCCNC(=O)CC(c4ccccc4)c4ccccc4)c4cc(O)cc(O)c4-c4cc3ccc4O)[C@H](O)c3ccc(c(Cl)c3)Oc3cc2cc(c3O[C@@H]2O[C@H](CO)[C@@H](O)[C@H](O)[C@H]2O[C@H]2C[C@](C)(N)[C@H](O)[C@H](C)O2)Oc2ccc(cc2Cl)[C@H]1O [Vanc-47] | 106 ± 14 µM | 240 ± 4 µM | MIC-fold improvement vs. vancomycin (E. faecalis VRE 37): 16; MIC-fold improvement vs. vancomycin (S. aureus VISA/HIP5827): 4; IC50 [4]: ≥ 250 µM; MIC (E. faecalis VRE 53): 50 µM (≈ 85 µg/mL); MIC-fold improvement vs. vancomycin (E. faecalis VRE 53): 8; MIC (E. faecalis VSE 1): 0.78 µM (≈ 1.33 µg/mL); MIC-fold improvement vs. vancomycin (E. faecalis VSE 1): 2; IC50 [5]: 199 µM
